From patent US7396943B2, “Opioid receptor antagonists” (Eli Lilly and Company, priority 2004, dated 2008)
Counter-ions that a name gives are not always drawn.

Key:
Assay type in all cases: biochemical
[1] = molecular target: delta opioid receptor (DOR) (Homo sapiens, UniProt P41143); assay: GTP-γ-S binding assay (SPA), antagonist mode, delta; settings: antagonism of agonist DPDPE 30 nM; membranes; Kb by Cheng-Prusoff equation; read-out: In Vitro Antagonism GTP-γ-S Kb (nM) Delta
Description: (§1) A scintillation proximity assay (SPA)-based GTP-γ-S^35 assay format was developed based on previous opioid (Emmerson et al., J. Pharm Exp Ther 278, 1121, 1996; Horng et al., Society for Neuroscience Abstracts, 434.6, 2000) and muscarinic (DeLapp et al., JPET 289, 946, 1999) assay formats. Membranes were resuspended in 20 mM HEPES, 100 mM NaCl, 5 mM MgCl2, 1 mM DTT, and 1 mM EDTA. […] of GTP-γ-[35S], compound, membrane suspension (20 microgram/well), and wheat germ agglutinin coated SPA beads (1 mg/well) were added to clear bottom 96 well assay plates. GDP ([…]) was added to the membrane solution prior to addition to the assay plates. Plates were sealed and incubated for four hours at room temperature then placed in a refrigerator overnight to allow the beads to settle. Signal stability at 4° C. was determined to be >60 hours. Plates were warmed to room temperature and counted in a Wallac Microbeta scintillation counter. For antagonist assays, specific agonists were added at the following concentrations: (MOR) DAMGO 1 micromolar, (DOR) DPDPE 30 nM, (KOR) US69593 300 nM. Kb's were determined by Cheng-Prusoff equation (see Cheng and Prusoff, Biochem. Pharmacol. 22, 3099 1973).

[2] = molecular target: kappa opioid receptor (KOR) (Homo sapiens, UniProt P41145); assay: GTP-γ-S binding assay (SPA), antagonist mode, kappa; settings: antagonism of agonist US69593 300 nM; membranes; Kb by Cheng-Prusoff equation; read-out: In Vitro Antagonism GTP-γ-S Kb (nM) Kappa
Description: as §1

mu opioid receptor (MOR) = mu opioid receptor (MOR) (Homo sapiens, UniProt P35372); assay: GTP-γ-S binding assay (SPA), antagonist mode, mu; settings: antagonism of agonist DAMGO 1 micromolar; membranes; Kb by Cheng-Prusoff equation; read-out: In Vitro Antagonism GTP-γ-S Kb (nM) Mu
Description: as §1

Chain of delta opioid receptor (DOR) (P41143 whole entry): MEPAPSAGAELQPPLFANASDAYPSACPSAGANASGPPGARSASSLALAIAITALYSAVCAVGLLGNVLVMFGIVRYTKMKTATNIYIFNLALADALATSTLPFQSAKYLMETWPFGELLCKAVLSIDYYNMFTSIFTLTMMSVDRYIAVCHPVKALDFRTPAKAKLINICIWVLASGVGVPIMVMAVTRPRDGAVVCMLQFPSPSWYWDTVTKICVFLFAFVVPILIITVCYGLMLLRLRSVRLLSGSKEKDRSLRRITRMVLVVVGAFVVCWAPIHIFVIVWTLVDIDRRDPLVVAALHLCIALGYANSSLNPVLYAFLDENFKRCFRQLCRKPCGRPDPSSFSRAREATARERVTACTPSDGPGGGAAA
Chain of kappa opioid receptor (KOR) (P41145 whole entry): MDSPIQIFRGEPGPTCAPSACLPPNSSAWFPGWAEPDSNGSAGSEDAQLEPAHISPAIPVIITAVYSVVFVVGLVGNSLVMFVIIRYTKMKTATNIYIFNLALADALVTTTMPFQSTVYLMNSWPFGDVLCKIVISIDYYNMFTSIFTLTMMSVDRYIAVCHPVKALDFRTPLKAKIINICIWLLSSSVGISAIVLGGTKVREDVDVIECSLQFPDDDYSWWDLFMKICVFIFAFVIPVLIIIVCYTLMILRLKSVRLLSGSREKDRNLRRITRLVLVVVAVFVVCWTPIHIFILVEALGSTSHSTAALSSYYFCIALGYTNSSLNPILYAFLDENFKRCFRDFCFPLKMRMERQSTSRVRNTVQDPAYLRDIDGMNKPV
Chain of mu opioid receptor (MOR) (P35372 whole entry): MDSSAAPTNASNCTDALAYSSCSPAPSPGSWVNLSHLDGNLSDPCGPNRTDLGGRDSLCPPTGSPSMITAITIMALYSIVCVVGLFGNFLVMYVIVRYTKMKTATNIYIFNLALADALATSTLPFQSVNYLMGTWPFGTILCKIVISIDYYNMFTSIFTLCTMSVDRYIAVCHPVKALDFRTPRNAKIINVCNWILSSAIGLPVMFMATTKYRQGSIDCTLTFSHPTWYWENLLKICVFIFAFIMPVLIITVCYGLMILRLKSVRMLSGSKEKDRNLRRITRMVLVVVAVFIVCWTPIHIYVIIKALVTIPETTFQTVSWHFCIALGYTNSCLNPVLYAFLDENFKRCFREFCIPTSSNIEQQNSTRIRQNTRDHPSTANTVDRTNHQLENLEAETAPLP

`COc1cc(C(N)=O)ccc1Oc1ccc(CNCCC(C)C)s1` [Example 8, 3-Methoxy-4-{5-[(3-methyl-butylamino)-methyl]-thiophen-2-yloxy}-benzamide hydrochloride] gave a Kb [1] of 40.5 nM, a Kb [2] of 3.2 nM and a Kb (mu opioid receptor (MOR)) of 4.7 nM.

With `NC(=O)c1ccc(Oc2ccc(CNCCC3CCCC3)s2)cc1` [Example 4, 4-{5-[(2-Cyclopentyl-ethylamino)-methyl]-thiophen-2-yloxy}-benzamide] the Kb [1] was 2.7 nM, the Kb [2] was 1 nM and the Kb (mu opioid receptor (MOR)) was 0.6 nM.

For `NC(=O)c1ccc(Oc2ccc(CNCCc3cccc(F)c3)s2)cc1` [Example 3, 4-(5-{[2-(3-Fluoro-phenyl)-ethylamino]-methyl}-thiophen-2-yloxy)-benzamide], the Kb [1] was 1.6 nM, the Kb [2] was 3.9 nM and the Kb (mu opioid receptor (MOR)) was 0.6 nM.

In the case of `NC(=O)c1ccc(Oc2ccc(CNCCc3ccccc3)s2)cc1` [Example 1, 4-[5-(Phenethylamino-methyl)-thiophen-2-yloxy]-benzamide], the Kb [1] is reported as 3.3 nM, the Kb [2] is reported as 4.6 nM and the Kb (mu opioid receptor (MOR)) is reported as 0.6 nM.

For `COc1cc(C(N)=O)ccc1Oc1ccc(CNCCc2ccccc2)s1` [Example 7, 3-Methoxy-4-[5-(phenethylamino-methyl)-thiophen-2-yloxy]-benzamide hydrochloride], the Kb [1] was 1.3 nM, the Kb [2] was 4 nM and the Kb (mu opioid receptor (MOR)) was 0.3 nM.

For `CC(C)(C)CCNCc1ccc(Oc2ccc(C(N)=O)cc2)s1` [Example 6, 4-{5-[(3,3-Dimethyl-butylamino)-methyl]-thiophen-2-yloxy}-benzamide], the Kb [1] was 13.7 nM and the Kb (mu opioid receptor (MOR)) was 5.7 nM.

`CC(C)CCNCc1ccc(Oc2ccc(C(N)=O)cc2)s1` [Example 2, 4-{5-[(3-Methyl-butylamino)-methyl]-thiophen-2-yloxy}-benzamide] gave a Kb [1] of 19.4 nM, a Kb [2] of 2.2 nM and a Kb (mu opioid receptor (MOR)) of 3.7 nM.

Compound `NC(=O)c1ccc(Oc2ccc(CNCCc3cccs3)s2)cc1` [Example 5, 4-{5-[(2-Thiophen-2-yl-ethylamino)-methyl]-thiophen-2-yloxy}-benzamide] has a Kb [1] of 2.4 nM, a Kb [2] of 1.4 nM and a Kb (mu opioid receptor (MOR)) of 0.6 nM.
